Active and inactive are the calls of the source. The calls are words filed in the database; no cut-off is given here.
What was measured:
[1] = tested on: HepG2; assay: Antiproliferative activity against human HepG2 cells assessed as inhibition of cell growth at 10 uM measured after 72 hrs by MTT assay relative to control; assay type: functional
[2] = tested on: HT-29; assay: Antiproliferative activity against human HT-29 cells assessed as inhibition of cell growth at 10 uM measured after 72 hrs by MTT assay relative to control; assay type: functional
[3] = tested on: MDA-MB-231; assay: Antiproliferative activity against human MDA-MB-231 cells assessed as inhibition of cell growth at 10 uM measured after 72 hrs by MTT assay relative to control; assay type: functional
[4] = tested on: MCF7; assay: Antiproliferative activity against human MCF7 cells assessed as inhibition of cell growth at 10 uM measured after 72 hrs by MTT assay relative to control; assay type: functional
[5] = tested on: A549; assay: Antiproliferative activity against human A549 cells assessed as inhibition of cell growth at 10 uM measured after 72 hrs by MTT assay relative to control; assay type: functional
[6] = Cytotoxicity against HUVEC cells assessed as inhibition of cell growth at 10 uM measured after 72 hrs by MTT assay; assay type: cell-based; conditions: human
[7] = tested on: A549; assay: Antiproliferative activity against human A549 cells assessed as inhibition of cell growth measured after 72 hrs by MTT assay; assay type: functional, cell-based; conditions: A549, 72 h
[8] = tested on: MDA-MB-231; assay: Antiproliferative activity against human MDA-MB-231 cells assessed as inhibition of cell growth measured after 72 hrs by MTT assay; assay type: functional, cell-based; conditions: MDA-MB-231, 72 h
[9] = tested on: A549; assay: Potency index, ratio of IC50 of CLX-4 to IC50 of compound for antiproliferative activity against human A549 cells assessed as inhibition of cell growth measured after 72 hrs by MTT assay; assay type: functional
[10] = tested on: MDA-MB-231; assay: Potency index, ratio of IC50 of CLX-4 to IC50 of compound for antiproliferative activity against human MDA-MB-231 cells assessed as inhibition of cell growth measured after 72 hrs by MTT assay; assay type: functional
[11] = tested on: MDA-MB-231; assay: Induction of morphological changes in human MDA-MB-231 cells assessed as rounded cell morphology at 10 to 100 uM by optical inverted microscopic analysis; assay type: functional, cell-based; conditions: dose 10-100 µM
[12] = tested on: MDA-MB-231; assay: Induction of morphological changes in human MDA-MB-231 cells assessed as cell shrinkage at 10 to 100 uM by optical inverted microscopic analysis; assay type: functional, cell-based; conditions: dose 10-100 µM
[13] = tested on: MDA-MB-231; assay: Induction of morphological changes in human MDA-MB-231 cells assessed as shedding of cell morphology at 10 to 100 uM by optical inverted microscopic analysis; assay type: functional, cell-based; conditions: dose 10-100 µM
[14] = tested on: MDA-MB-231; assay: Antimigratory activity in human MDA-MB-231 cells assessed as cell migration at 2 uM measured after 48 hrs by wound healing assay (reference value: 67.4 %); assay type: functional
[15] = tested on: MDA-MB-231; assay: Antimigratory activity in human MDA-MB-231 cells assessed as cell migration at 4 uM measured after 48 hrs by wound healing assay (reference value: 67.4 %); assay type: functional
[16] = tested on: MDA-MB-231; assay: Antimigratory activity in human MDA-MB-231 cells assessed as cell migration at 8 uM measured after 48 hrs by wound healing assay (reference value: 67.4 %); assay type: functional
[17] = tested on: MDA-MB-231; assay: Antimigratory activity in human MDA-MB-231 cells assessed as reduction in cell migration measured after 48 hrs by wound healing assay; assay type: functional, cell-based
[18] = tested on: MDA-MB-231; assay: Induction of apoptosis in human MDA-MB-231 cells assessed as viable cells at 0.2 uM measured after 48 hrs by Annexin V-FITC/propidium iodide staining based flow cytometry (reference value: 94.1 %); assay type: functional; conditions: read-out: Activity
[19] = tested on: MDA-MB-231; assay: Induction of apoptosis in human MDA-MB-231 cells assessed as early apoptotic cells at 0.2 uM measured after 48 hrs by Annexin V-FITC/propidium iodide staining based flow cytometry (reference value: 1.03 %); assay type: functional
[20] = tested on: MDA-MB-231; assay: Induction of apoptosis in human MDA-MB-231 cells assessed as late apoptotic cells at 0.2 uM measured after 48 hrs by Annexin V-FITC/propidium iodide staining based flow cytometry (reference value: 4.5 %); assay type: functional
[21] = tested on: MDA-MB-231; assay: Induction of apoptosis in human MDA-MB-231 cells assessed as necrotic cells at 0.2 uM measured after 48 hrs by Annexin V-FITC/propidium iodide staining based flow cytometry (reference value: 0.36 %); assay type: functional
[22] = tested on: MDA-MB-231; assay: Induction of apoptosis in human MDA-MB-231 cells assessed as viable cells at 2 uM measured after 48 hrs by Annexin V-FITC/propidium iodide staining based flow cytometry (reference value: 94.1 %); assay type: functional; conditions: read-out: Activity
[23] = tested on: MDA-MB-231; assay: Induction of apoptosis in human MDA-MB-231 cells assessed as early apoptotic cells at 2 uM measured after 48 hrs by Annexin V-FITC/propidium iodide staining based flow cytometry (reference value: 1.03 %); assay type: functional
[24] = tested on: MDA-MB-231; assay: Induction of apoptosis in human MDA-MB-231 cells assessed as late apoptotic cells at 2 uM measured after 48 hrs by Annexin V-FITC/propidium iodide staining based flow cytometry (reference value: 4.5 %); assay type: functional
[25] = tested on: MDA-MB-231; assay: Induction of apoptosis in human MDA-MB-231 cells assessed as necrotic cells at 2 uM measured after 48 hrs by Annexin V-FITC/propidium iodide staining based flow cytometry (reference value: 0.36 %); assay type: functional
[26] = tested on: MDA-MB-231; assay: Induction of apoptosis in human MDA-MB-231 cells assessed as viable cells at 20 uM measured after 48 hrs by Annexin V-FITC/propidium iodide staining based flow cytometry (reference value: 94.1 %); assay type: functional; conditions: read-out: Activity
[27] = tested on: MDA-MB-231; assay: Induction of apoptosis in human MDA-MB-231 cells assessed as early apoptotic cells at 20 uM measured after 48 hrs by Annexin V-FITC/propidium iodide staining based flow cytometry (reference value: 1.03 %); assay type: functional
[28] = tested on: MDA-MB-231; assay: Induction of apoptosis in human MDA-MB-231 cells assessed as late apoptotic cells at 20 uM measured after 48 hrs by Annexin V-FITC/propidium iodide staining based flow cytometry (reference value: 4.5 %); assay type: functional
[29] = tested on: MDA-MB-231; assay: Induction of apoptosis in human MDA-MB-231 cells assessed as necrotic cells at 20 uM measured after 48 hrs by Annexin V-FITC/propidium iodide staining based flow cytometry (reference value: 0.36 %); assay type: functional
[30] = tested on: MDA-MB-231; assay: Induction of cell cycle arrest in human MDA-MB-231 cells assessed as increase in accumulation in G0/G1 phase at 0.2 to 20 uM measured after 48 hrs by propidium iodide staining based flow cytometry; assay type: functional; conditions: dose 0.2-20 µM
[31] = tested on: MDA-MB-231; assay: Induction of apoptosis in human MDA-MB-231 cells assessed as increase in caspase-3 activation at 0.4 to 10 uM measured after 48 hrs by Western blot analysis; assay type: functional, cell-based; conditions: dose 0.4-10 µM
[32] = tested on: MDA-MB-231; assay: Induction of apoptosis in human MDA-MB-231 cells assessed as increase in cleaved PARP level at 0.4 to 10 uM measured after 48 hrs by Western blot analysis; assay type: functional, cell-based; conditions: dose 0.4-10 µM
[33] = tested on: MDA-MB-231; assay: Induction of apoptosis in human MDA-MB-231 cells assessed as increase in Bax expression at 0.4 to 10 uM measured after 48 hrs by Western blot analysis; assay type: functional, cell-based; conditions: dose 0.4-10 µM
[34] = tested on: MDA-MB-231; assay: Induction of apoptosis in human MDA-MB-231 cells assessed as decrease in Bcl-2 expression at 0.4 to 10 uM measured after 48 hrs by Western blot analysis; assay type: functional, cell-based; conditions: dose 0.4-10 µM
[35] = tested on: MDA-MB-231; assay: Induction of apoptosis in human MDA-MB-231 cells assessed as increase in ratio of Bax/Bcl-2 at 0.4 to 10 uM measured after 48 hrs by Western blot analysis; assay type: functional, cell-based; conditions: dose 0.4-10 µM
[36] = tested on: MDA-MB-231; assay: Induction of cell cycle arrest in human MDA-MB-231 cells assessed as decrease in CDK4 expression at 0.4 to 10 uM measured after 48 hrs by Western blot analysis; assay type: functional, cell-based; conditions: dose 0.4-10 µM
[37] = tested on: MDA-MB-231; assay: Induction of cell cycle arrest in human MDA-MB-231 cells assessed as decrease in CyclinD1 expression at 0.4 to 10 uM measured after 48 hrs by Western blot analysis; assay type: functional, cell-based; conditions: dose 0.4-10 µM
[38] = tested on: MDA-MB-231; assay: Induction of apoptosis in human MDA-MB-231 cells assessed as increase in fluorescence intensity at 0.2 to 20 uM measured after 48 hrs by Hoechst 33342 staining based fluorescence microscopic analysis; assay type: functional, cell-based; conditions: dose 0.2-20 µM
[39] = tested on: MDA-MB-231; assay: Induction of apoptosis in human MDA-MB-231 cells assessed as nuclear condensation at 0.2 to 20 uM measured after 48 hrs by Hoechst 33342 staining based fluorescence microscopic analysis; assay type: functional, cell-based; conditions: dose 0.2-20 µM
[40] = tested on: MDA-MB-231; assay: Induction of apoptosis in human MDA-MB-231 cells assessed as nuclear rupture at 0.2 to 20 uM measured after 48 hrs by Hoechst 33342 staining based fluorescence microscopic analysis; assay type: functional, cell-based; conditions: dose 0.2-20 µM
[41] = tested on: MDA-MB-231; assay: Induction of apoptosis in human MDA-MB-231 cells assessed as increase in apoptotic bodies at 0.2 to 20 uM measured after 48 hrs by Hoechst 33342 staining based fluorescence microscopic analysis; assay type: functional, cell-based; conditions: dose 0.2-20 µM

## CCC(Oc1c2cc(C(C)(C)C)cc1Cc1cc(C(C)(C)C)cc(c1O)Cc1cc(C(C)(C)C)cc(c1OC(CC)C(=O)N(CCO)CCO)Cc1cc(C(C)(C)C)cc(c1O)C2)C(=O)N(CCO)CCO (stereo unspecified)
[1]
  inhibition at 10 µM: 89.6%
[2]
  inhibition at 10 µM: 64.2%
[3]
  inhibition at 10 µM: 88.2%
[4]
  inhibition at 10 µM: 90.4%
[5]
  inhibition at 10 µM: 90.7%
[6]
  inhibition at 72 h, 10 µM: 9.6%
[7]
  IC50: 1200 nM
[8]
  IC50: 660 nM
[9]
  Ratio IC50: 3.2
[10]
  Ratio IC50: 6.8
[11]
  Activity: Active
[12]
  Activity: Active
[13]
  Activity: Active
[14]
  Activity: 76.9%
[15]
  Activity: 79%
[16]
  Activity: 84%
[17]
  Activity: Dose-dependent effect
[18]
  viability at 0.2 µM: 65.5%
[19]
  Activity: 12.3%
[20]
  Activity: 21.2%
[21]
  Activity: 1.13%
[22]
  viability at 2 µM: 56.9%
[23]
  Activity: 22.1%
[24]
  Activity: 20.7%
[25]
  Activity: 0.34%
[26]
  viability at 20 µM: 39%
[27]
  Activity: 19.2%
[28]
  Activity: 40.4%
[29]
  Activity: 1.37%
[30]
  Activity: Active
[31]
  Activity: Active
[32]
  Activity: Active
[33]
  Activity: Active
[34]
  Activity: Active
[35]
  Activity: Active
[36]
  Activity: Active
[37]
  Activity: Active
[38]
  Activity: Active
[39]
  Activity: Active
[40]
  Activity: Active
[41]
  Activity: Active
